Tests used:
[1] = tested on: PU.1 dependent gene expression; assay: RT-qPCR of mRNA levels in BV2 PU.1-Luciferase cells (validation round 3); assay type: cell-based, mouse; conditions: 2-day treatment
Protocol: The Asinex1 and ChemDiv6 libraries contain molecules with unknown biological properties, but with low toxicity, high stability, and a broad structural diversity used to generate structure-activity-relationships (SAR) of the PU.1 inhibitors. […] In order to obtain the SAR, three rounds of validation were performed. In round 1, false-positive, non-specific luciferase quencher molecules were excluded using the commercially available HEK293 CMV-Luciferase line that constitutively expresses luciferase under the CMV promoter. In round 2, weak (non-significant) hits were eliminated according to degree of PU.1 inhibition in the absence of cell death. In round 3, drugs were selected that reduce PU.1-dependent gene expression with RT-qPCR.

PU.1 = target: T1, PU.1 (Mus musculus, UniProt P17433); assay: Luciferase assay (luminescence) in BV2 PU.1-Luciferase reporter cells; assay type: cell-based; conditions: luminescence reduction in BV2 PU.1-Luciferase cells, concentration-response, Hill's equation
T1 construct: endogenous in cells; host or cells: BV2 PU.1-Luciferase (mouse microglial BV2 with a 5xLBB-luciferase reporter integrated at ROSA26)
Excerpt: PU.1 belongs to a group of transcription factors that all bind to the middle 5′-GGAA-3′ sequence. The flanking A/T rich sequence is crucial for conferring PU.1 selective binding. The flanking sequence requires unique structural properties of PU.1 and can therefore be targeted by drugs acting as allosteric inhibitors that prevent PU.1 from binding to the LBB. In order to achieve robust PU.1 binding, five tandem copies of the LBBs (5×LBB) were inserted into the luciferase promoter of the pGL4.23 plasmid. The region containing the five LBBs (5×LBB) was then subcloned into the pROSA26-1 plasmid (together with a PGKneo bpA plasmid for Neomycin/G418 resistance) that allows stable integration in chromosome 6 of the immortalized mouse microglial BV2 cell line (FIG. 2B). The stable cell line was created by selection with G418.
The BV2 PU.1-Luciferase cells (referred to as “cells” from here onward) were plated into a 384-well plate, using an automatic dispenser, 2000 cells per well in 30 μL of media composed of RPMI (Sigma-Aldrich), 10% FBS, 1% PenStrep (50 mg/mL) and 1% G418 (50 mg/mL) was plated. A robotic arm was used to transfer compounds in a 384-well format using a pin array into the plate containing the cells (here, 33 nL was transferred from a drug library containing 10 mM concentration of drugs for a final concentration of 10 μM per well). For reproducibility, each pin array with 384 compounds was added to 4 plates of cells. […] Subsequently, automatic of 30 μL of BrightGlo (Promega) was dispensed into 2 of the 4 plates, in order to lyse the cells and drive the luminescence reaction whereafter the luminescence intensity was measured by a plate reader (Perkin Elmer EnVision). The two other plates were fixed by automatically dispensing 30 μL of 10% formaldehyde with 2μL Hoechst per 1 mL formaldehyde which were left at room temperature for one hour, followed by plate reading (Acumen (TTPLabTech)). A compound transfer and treatment would be repeated if reproducibility between the luminescence plates and/or the fixed Hoechst plates was lacking. The drugs were selected and ranked according to the criteria described in FIG. 13. Luminescence values used were corrected for crosstalk. Hoechst values were total fluorescence area per well. Determination of a positive hit considered both the reduction of luminescence as well as a possible confounding reduction in cell viability. The formula used was y=(value−meanvalue)/stddev. […] Compounds were excluded if cell viability was reduced >2 standard deviations from the mean, using the same formula. The positive hits were then validated in multiple steps in order to identify true PU.1 inhibitors.
The degree of luminescence reduction of the hits was plotted with significant effective area under the curve in order to obtain an IC50.

| SMILES | mRNA levels Apoe [1] | mRNA levels IL1β [1] | mRNA levels Lucif. [1] | mRNA levels Spi1 [1] | mRNA levels Trem2 [1] | mRNA levels Tyrobp [1] | IC50 (PU.1) |
| --- | --- | --- | --- | --- | --- | --- | --- |
| CCCC(=O)Nc1nnc(SCc2cc(=O)c3ccc(C)cc3[nH]2)s1 [Compound 2E6] | 1.170 multiples of 1× | 0.810 multiples of 1× | 0.379 multiples of 1× | 1.046 multiples of 1× | 1.262 multiples of 1× | 1.347 multiples of 1× | 1620 nM |
| Cc1ccc(C(=O)Nc2nnc(SCc3cc(=O)c4c(C)ccc(C)c4[nH]3)s2)cc1 [Compound 2E7] | 1.076 multiples of 1× | 0.887 multiples of 1× | 0.623 multiples of 1× | 0.926 multiples of 1× | 0.854 multiples of 1× | 0.927 multiples of 1× | 8050 nM |
| Cc1ccc(C)c(N2CCN(C(=O)C3CCN(c4nc(-c5ccc(C(C)C)cc5)no4)CC3)CC2)c1 [Compound 2E10] | 1.244 multiples of 1× | 1.082 multiples of 1× | 0.611 multiples of 1× | 1.133 multiples of 1× | 1.253 multiples of 1× | 1.158 multiples of 1× | 1340 nM |
| Cc1nc(-c2ccc(S(=O)(=O)Nc3ccc(C)c(N(C)C)c3)cc2)co1 [Compound 2F3] | 1.011 multiples of 1× | 0.386 multiples of 1× | 0.496 multiples of 1× | 0.733 multiples of 1× | 0.790 multiples of 1× | 0.854 multiples of 1× | 2290 nM |
| COc1cc(NS(=O)(=O)c2ccc3c(c2)CCN3S(C)(=O)=O)cc(OC)c1 [Compound 2F5] | 0.790 multiples of 1× | 0.767 multiples of 1× | 0.590 multiples of 1× | 0.783 multiples of 1× | 0.901 multiples of 1× | 0.985 multiples of 1× | 3540 nM |
| COc1ccc(NS(=O)(=O)c2ccc3c(c2)CCCN3C(=O)C2CCC2)cc1OC [Compound 2F7] | 1.146 multiples of 1× | 0.460 multiples of 1× | 0.216 multiples of 1× | 0.936 multiples of 1× | 1.442 multiples of 1× | 1.498 multiples of 1× | 1420 nM |
| Cc1c(Cl)ccc2sc(N3CCN(C(=O)CCS(=O)(=O)c4ccc(F)cc4)CC3)nc12 [Compound 2F9] | 0.928 multiples of 1× | 0.821 multiples of 1× | 0.655 multiples of 1× | 1.020 multiples of 1× | 0.890 multiples of 1× | 0.904 multiples of 1× | 1330 nM |
| Cc1cccc(Cn2cccc(C(=O)Nc3nc4ccccc4s3)c2=O)c1 [Compound 2F11] | 1.005 multiples of 1× | 1.086 multiples of 1× | 0.640 multiples of 1× | 0.943 multiples of 1× | 1.012 multiples of 1× | 1.002 multiples of 1× | 303 nM |
| Cn1nccc1C(=O)NCc1ccc2c(c1)CCN2C(=O)c1ccc(F)cc1 [Compound 2G2] | 0.957 multiples of 1× | 0.887 multiples of 1× | 0.294 multiples of 1× | 0.958 multiples of 1× | 1.071 multiples of 1× | 0.963 multiples of 1× | 4800 nM |
| CCCCN(c1ccccc1)c1ncnc2c1cnn2-c1ccc(Cl)cc1 [Compound 2G8] | 1.119 multiples of 1× | 1.362 multiples of 1× | 0.497 multiples of 1× | 1.179 multiples of 1× | 1.237 multiples of 1× | 1.469 multiples of 1× | 967 nM |
| CSc1ccc(C=Cc2nc3ccccc3n2S(=O)(=O)c2ccc(F)c(C)c2)cc1 [Compound 2G10] | 0.899 multiples of 1× | 0.786 multiples of 1× | 0.531 multiples of 1× | 0.790 multiples of 1× | 0.993 multiples of 1× | 0.855 multiples of 1× | 507 nM |
| CCOc1ccc(-c2nc(CSCC(=O)NCc3ccc(C)cc3)c(C)o2)cc1 [Compound 2H2] | 1.739 multiples of 1× | 0.706 multiples of 1× | 0.299 multiples of 1× | 1.251 multiples of 1× | 1.668 multiples of 1× | 1.952 multiples of 1× | 380 nM |
| CCOc1ccc(-c2nc(CSCC(=O)NCc3ccc(Cl)cc3)c(C)o2)cc1 [Compound 2H3] | 1.111 multiples of 1× | 0.915 multiples of 1× | 0.722 multiples of 1× | 0.897 multiples of 1× | 0.986 multiples of 1× | 1.003 multiples of 1× | 734 nM |
| Cc1ccc(-c2c(C)n3c4c(=O)n(C)c(=O)n(C)c4nc3n2CCO)cc1 [Compound 2H5] | 1.756 multiples of 1× | 0.185 multiples of 1× | 0.165 multiples of 1× | 1.316 multiples of 1× | 2.628 multiples of 1× | 2.422 multiples of 1× | 155 nM |
| N#CC(=CNc1ccc2c(c1)OCCO2)c1nc2ccccc2[nH]1 [Compound A09] | 0.941 multiples of 1× | 0.644 multiples of 1× | 0.513 multiples of 1× | 0.931 multiples of 1× | 0.879 multiples of 1× | 0.821 multiples of 1× | 1480 nM |
| Cc1ccccc1NC(=O)C(C)Sc1nc2ccccc2c(=O)n1C (stereo not shown) [Compound D04] | 0.841 multiples of 1× | 0.866 multiples of 1× | 0.519 multiples of 1× | 0.865 multiples of 1× | 0.976 multiples of 1× | 1.071 multiples of 1× | 477 nM |
| Cn1nc(CC(=O)Nc2ccc(N3CCN(C(=O)OC(C)(C)C)CC3)cc2)c2ccccc2c1=O [Compound D06] | 1.233 multiples of 1× | 0.590 multiples of 1× | 0.153 multiples of 1× | 1.030 multiples of 1× | 1.510 multiples of 1× | 1.374 multiples of 1× | 25 nM |
| CCOc1ccc(S(=O)(=O)NCc2ccncc2)cc1C(C)C [Compound D09] | 0.390 multiples of 1× | 0.938 multiples of 1× | 0.360 multiples of 1× | 0.781 multiples of 1× | 0.437 multiples of 1× | 0.496 multiples of 1× | 38 nM |
| COc1cccc2cc(C(=O)Nc3ccc(N4CCNCC4)cc3)c(=O)oc12 [Compound D10] | 1.251 multiples of 1× | 1.347 multiples of 1× | 0.622 multiples of 1× | 1.072 multiples of 1× | 1.342 multiples of 1× | 1.593 multiples of 1× | 258 nM |

Reference: US20220340983A1, “SYSTEMS AND ASSAYS FOR IDENTIFYING PU.1 INHIBITORS” (Massachustts Institute of Technology, priority 2019, published 2022)
